# Assay results taken from patent publication US9856279B2 (AGIOS PHARMACEUTICALS, INC, priority 2011, dated 2018).
# What was measured:
# IDH1 R132H = IDH1 R132H (Homo sapiens, UniProt O75874, R132H); assay: Assay for IDH1 R132H inhibitors (NADPH/aKG, resazurin detection); type: biochemical; conditions: enzyme assay of Example 12; read-out: IDH1R132H IC50
# In short: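 Read-out is resorufin fluorescence (Ex544/Em590) 5 min after adding a 30 μM resazurin detection mix. Before that, mutant enzyme (0.2 μg/ml in its mix) ran 50 min at room temperature with compound, 8 uM NADPH and 2 mM aKG (mix levels) in Tris pH 7.5 with NaCl, MgCl2, BSA.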
# HT1080 cells = assay: Cellular assay for IDH1m inhibitors: inhibition of 2-HG production (LC-MS, 48 hours) in HT1080 cells; type: cell-based; conditions: Homo sapiens, HT-1080; inhibition of 2-HG production, HT1080 cells; read-out: HT1080 IC50
# In short: (§1)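 5000 cells/well, DMEM + 10% FBS, overnight 37 °C/5% CO2; compound added (0.2% DMSO final), 48 h; medium sampled for LC-MS 2-HG; IC50 vs DMSO control.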
# U87MG cells = assay: Cellular assay for IDH1m inhibitors: inhibition of 2-HG production (LC-MS, 48 hours) in U87MG cells; type: cell-based; conditions: Homo sapiens, U-87 MG, inhibition of 2-HG production, U87R132H cells; read-out: U87R132H IC50
# In short: as §1
# Sequence of IDH1 R132H (O75874 whole entry R132H): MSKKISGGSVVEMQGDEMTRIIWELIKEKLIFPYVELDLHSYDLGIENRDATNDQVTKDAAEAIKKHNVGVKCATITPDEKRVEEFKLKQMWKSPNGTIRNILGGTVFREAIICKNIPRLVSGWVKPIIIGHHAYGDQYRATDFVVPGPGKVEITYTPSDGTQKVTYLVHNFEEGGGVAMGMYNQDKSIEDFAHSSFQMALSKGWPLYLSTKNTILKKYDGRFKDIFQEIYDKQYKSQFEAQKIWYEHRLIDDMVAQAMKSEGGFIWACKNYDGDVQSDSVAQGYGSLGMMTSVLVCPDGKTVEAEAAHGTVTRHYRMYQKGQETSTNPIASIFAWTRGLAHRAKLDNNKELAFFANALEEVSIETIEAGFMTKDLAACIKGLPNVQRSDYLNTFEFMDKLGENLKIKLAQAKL
SMILES,IC50 (IDH1 R132H),IC50 (HT1080 cells),IC50 (U87MG cells)
"C=Cc1cc(-c2cc(C#N)c(N3CCN(C(=O)CC4CCO4)[C@H](C)C3)nc2C2CC2)ccn1 (stereo partly drawn) [Compound 649, 2-cyclopropyl-6-((3R)-3-methyl-4-(2-(oxetan-2-yl)acetyl)piperazin-1-yl)-2′-vinyl-[3,4′-bipyridine]-5-carbonitrile]",< 500 nM,< 500 nM,< 500 nM
"C=Cc1ncc2c(-c3cc(C#N)c(N4CCN(C(=O)CCO)[C@H](C)C4)nc3C3CC3)cccc2n1 [Compound 652, (R)-6-cyclopropyl-2-(4-(3-hydroxypropanoyl)-3-methylpiperazin-1-yl)-5-(2-vinylquinazolin-5-yl)nicotinonitrile]",< 500 nM,< 500 nM,< 500 nM
"C=Cc1cc(-c2c(C3CC3)nc(N3CCN(C(=O)CCO)[C@H](C)C3)c(C#N)c2C)ccn1 [Compound 654, (R)-2-cyclopropyl-6-(4-(3-hydroxypropanoyl)-3-methylpiperazin-1-yl)-4-methyl-2′-vinyl-[3,4′-bipyridine]-5-carbonitrile]",< 500 nM,< 500 nM,< 500 nM
"C=Cc1cnc2c(-c3cc(C#N)c(N4CCN(C(=O)CCO)[C@H](C5CC5)C4)nc3C3CC3)cccc2n1 [Compound 657, (R)-6-cyclopropyl-2-(3-cyclopropyl-4-(3-hydroxypropanoyl)piperazin-1-yl)-5-(2-vinylquinoxalin-5-yl)nicotinonitrile]",< 500 nM,< 500 nM,< 500 nM
"COCCC(=O)N1CCN(c2nc(C3CC3)c(Nc3ccnc(C#N)c3)cc2C#N)C[C@H]1C [Compound 660, (R)-4-(5-cyano-2-cyclopropyl-6-(4-(3-methoxypropanoyl)-3-methylpiperazin-1-yl)pyridin-3-ylamino)picolinonitrile]",< 500 nM,< 500 nM,< 500 nM
"C=Cc1cc(-c2cc(C#N)c(N3CCN(C(=O)CCO)[C@H](C4CC4)C3)nc2C2CC2)ncn1 [Compound 663, (R)-6-cyclopropyl-2-(3-cyclopropyl-4-(3-hydroxypropanoyl)piperazin-1-yl)-5-(6-vinylpyrimidin-4-yl)nicotinonitrile]",< 500 nM,< 500 nM,< 500 nM
"COCCC(=O)N1CCN(c2nc(C3CC3)c(Oc3cc(Cl)ncn3)cc2C#N)C[C@H]1C [Compound 666, (R)-5-((6-chloropyrimidin-4-yl)oxy)-6-cyclopropyl-2-(4-(3-methoxypropanoyl)-3-methylpiperazin-1-yl)nicotinonitrile]",< 500 nM,< 500 nM,< 500 nM
C=Cc1cc(Oc2cc(C#N)c(N3CCN(C(=O)CCOC)[C@H](C)C3)nc2C2CC2)ccn1 [Compound 667],< 500 nM,< 500 nM,< 500 nM
"C=Cc1nc(-c2cc(C#N)c(N3CCN(C(=O)CCO)[C@H](C4CC4)C3)nc2C2CC2)c2ccccc2n1 [Compound 670, (R)-6-cyclopropyl-2-(3-cyclopropyl-4-(3-hydroxypropanoyl)piperazin-1-yl)-5-(2-vinylquinazolin-4-yl)nicotinonitrile]",< 500 nM,< 500 nM,< 500 nM
"C=Cc1cc(-c2cc(C#N)c(N3CCN(C(=O)CCOC)[C@H](C4CC4)C3)nc2C2CC2)cnn1 [Compound 674, (R)-6-cyclopropyl-2-(3-cyclopropyl-4-(3-methoxypropanoyl)piperazin-1-yl)-5-(6-vinylpyridazin-4-yl)nicotinonitrile]",< 500 nM,< 500 nM,< 500 nM
"COCCC(=O)N1CCN(c2nc(C3CC3)c(-c3cnnc(OS(=O)(=O)C(F)(F)F)c3)cc2C#N)C[C@H]1C1CC1 [Compound 675, (R)-5-(5-cyano-2-cyclopropyl-6-(3-cyclopropyl-4-(3-methoxypropanoyl)piperazin-1-yl)pyridin-3-yl)pyridazin-3-yl trifluoromethanesulfonate]",< 500 nM,1000 to 10000 nM,500 to 1000 nM
"C=Cc1cc(Nc2cc(C#N)c(N3CCN(C(=O)CCO)[C@H](C4CC4)C3)nc2C2CC2)ccn1 [Compound 676, (R)-6-cyclopropyl-2-(3-cyclopropyl-4-(3-hydroxypropanoyl)piperazin-1-yl)-5-((2-vinylpyridin-4-yl)amino)nicotinonitrile]",< 500 nM,< 500 nM,< 500 nM
"C=Cc1cc(Nc2cc(C#N)c(N3CCN(C(=O)CCOC)[C@H](C4CC4)C3)nc2C2CC2)ccn1 [Compound 678, (R)-6-cyclopropyl-2-(3-cyclopropyl-4-(3-methoxypropanoyl)piperazin-1-yl)-5-((2-vinylpyridin-4-yl)amino)nicotinonitrile]",< 500 nM,< 500 nM,< 500 nM
"C=Cc1cc(-c2cc(C#N)c(N3CCN(C(=O)CCO)[C@H](C(C)C)C3)nc2C2CC2)c2ccncc2n1 [Compound 681, (R)-6-cyclopropyl-2-(4-(3-hydroxypropanoyl)-3-isopropylpiperazin-1-yl)-5-(2-vinyl-1,7-naphthyridin-4-yl)nicotinonitrile]",< 500 nM,< 500 nM,< 500 nM
"C=Cc1cc(-c2cc(C#N)c(N3CCN(C(=O)CCO)[C@H](C4CC4)C3)nc2C2CC2)cnn1 [Compound 686, (R)-6-cyclopropyl-2-(3-cyclopropyl-4-(3-hydroxypropanoyl)piperazin-1-yl)-5-(6-vinylpyridazin-4-yl)nicotinonitrile]",< 500 nM,< 500 nM,< 500 nM
"C=Cc1cc(-c2cc(C#N)c(N3CCN(C(=O)CCO)[C@H](C4CC4)C3)nc2C2CC2)c2ccncc2n1 [Compound 688, (R)-6-cyclopropyl-2-(3-cyclopropyl-4-(3-hydroxypropanoyl)piperazin-1-yl)-5-(2-vinyl-1,7-naphthyridin-4-yl)nicotinonitrile]",< 500 nM,< 500 nM,< 500 nM
"C=Cc1cc(-c2cc(C#N)c(N3CCN(C(=O)C4CC4)[C@H](C4CC4)C3)nc2C2CC2)c2ccncc2n1 [Compound 689, (R)-2-(4-(cyclopropanecarbonyl)-3-cyclopropylpiperazin-1-yl)-6-cyclopropyl-5-(2-vinyl-1,7-naphthyridin-4-yl)nicotinonitrile]",< 500 nM,< 500 nM,< 500 nM
"C=Cc1cc(N(C)c2cc(C#N)c(N3CCN(C(=O)CCOC)[C@H](C)C3)nc2C2CC2)ccn1 [Compound 690, (R)-6-cyclopropyl-2-(4-(3-methoxypropanoyl)-3-methylpiperazin-1-yl)-5-(methyl(2-vinylpyridin-4-yl)amino)nicotinonitrile]",< 500 nM,< 500 nM,< 500 nM
"C=Cc1cc(Oc2cc(C#N)c(N3CCN(C(=O)CCO)[C@H](C4CC4)C3)nc2C2CC2)ccn1 [Compound 692, (R)-6-cyclopropyl-2-(3-cyclopropyl-4-(3-hydroxypropanoyl)piperazin-1-yl)-5-(2-vinylpyridin-4-yloxy)nicotinonitrile]",< 500 nM,< 500 nM,< 500 nM
"C=Cc1cc(Oc2cc(C#N)c(N3CCN(C(=O)CCOC)[C@H](C4CC4)C3)nc2C2CC2)ccn1 [Compound 693, (R)-6-cyclopropyl-2-(3-cyclopropyl-4-(3-methoxypropanoyl)piperazin-1-yl)-5-(2-vinylpyridin-4-yloxy)nicotinonitrile]",< 500 nM,< 500 nM,< 500 nM
